Test results taken from the supplement of paper PMC11451515.

Test system: SEM cells
Test: cell viability relative to DMSO control; higher = less cytotoxic
Details: 48 h
Method in brief: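 Leukemia cells (NOMO1 or SEM, 500 cells/well; P12-Ichikawa, 1000 cells/well) were seeded in 5 μl in 1536-well plates after at least four passages of adaptation to each medium. They received library compounds in DMSO by pin dosing, 11 threefold points from 47 μM to 0.79 nM. Luminescence with CellTiter-Glo One was read after 48 h at 37°C. Viability is stated per plate relative to DMSO wells, with cell-free wells as background.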

[1] = RPMI 5 mM glucose + 10% FBS, 0.000781 µM
[2] = RPMI 5 mM glucose + 10% FBS, 0.00234 µM
[3] = RPMI 5 mM glucose + 10% FBS, 0.00702 µM
[4] = RPMI 5 mM glucose + 10% FBS, 0.0211 µM
[5] = RPMI 5 mM glucose + 10% FBS, 0.0632 µM
[6] = RPMI 5 mM glucose + 10% FBS, 0.19 µM
[7] = RPMI 5 mM glucose + 10% FBS, 0.569 µM
[8] = RPMI 5 mM glucose + 10% FBS, 1.71 µM
[9] = RPMI 5 mM glucose + 10% FBS, 5.12 µM
[10] = RPMI 5 mM glucose + 10% FBS, 15.4 µM
[11] = RPMI 5 mM glucose + 10% FBS, 46.1 µM
[12] = HPLM + 10% dialyzed FBS, 0.000781 µM
[13] = HPLM + 10% dialyzed FBS, 0.00234 µM
[14] = HPLM + 10% dialyzed FBS, 0.00702 µM
[15] = HPLM + 10% dialyzed FBS, 0.0211 µM
[16] = HPLM + 10% dialyzed FBS, 0.0632 µM
[17] = HPLM + 10% dialyzed FBS, 0.19 µM
[18] = HPLM + 10% dialyzed FBS, 0.569 µM
[19] = HPLM + 10% dialyzed FBS, 1.71 µM
[20] = HPLM + 10% dialyzed FBS, 5.12 µM
[21] = HPLM + 10% dialyzed FBS, 15.4 µM
[22] = HPLM + 10% dialyzed FBS, 46.1 µM
[23] = RPMI 5 mM glucose + 10% dialyzed FBS, 0.000781 µM
[24] = RPMI 5 mM glucose + 10% dialyzed FBS, 0.00234 µM
[25] = RPMI 5 mM glucose + 10% dialyzed FBS, 0.00702 µM
[26] = RPMI 5 mM glucose + 10% dialyzed FBS, 0.0211 µM
[27] = RPMI 5 mM glucose + 10% dialyzed FBS, 0.0632 µM
[28] = RPMI 5 mM glucose + 10% dialyzed FBS, 0.19 µM
[29] = RPMI 5 mM glucose + 10% dialyzed FBS, 0.569 µM
[30] = RPMI 5 mM glucose + 10% dialyzed FBS, 1.71 µM
[31] = RPMI 5 mM glucose + 10% dialyzed FBS, 5.12 µM
[32] = RPMI 5 mM glucose + 10% dialyzed FBS, 15.4 µM
[33] = RPMI 5 mM glucose + 10% dialyzed FBS, 46.1 µM

| Compound | cell viability [1] | cell viability [2] | cell viability [3] | cell viability [4] | cell viability [5] | cell viability [6] | cell viability [7] | cell viability [8] | cell viability [9] | cell viability [10] | cell viability [11] | cell viability [12] | cell viability [13] | cell viability [14] | cell viability [15] | cell viability [16] | cell viability [17] | cell viability [18] | cell viability [19] | cell viability [20] | cell viability [21] | cell viability [22] | cell viability [23] | cell viability [24] | cell viability [25] | cell viability [26] | cell viability [27] | cell viability [28] | cell viability [29] | cell viability [30] | cell viability [31] | cell viability [32] | cell viability [33] |
| --- | --- | --- | --- | --- | --- | --- | --- | --- | --- | --- | --- | --- | --- | --- | --- | --- | --- | --- | --- | --- | --- | --- | --- | --- | --- | --- | --- | --- | --- | --- | --- | --- | --- |
| CC(C)(N)C(=O)N[C@H](COCc1ccccc1)C(=O)N1CCC2(CC1)CN([S+](C)(=O)[O-])c1ccccc12 | 124% | 127% | 122% | 155% | 130% | 130% | 139% | 121% | 114% | 91.9% | 36.8% |  |  |  |  |  |  |  |  |  |  |  |  |  |  |  |  |  |  |  |  |  |  |
| CCC(CCCC)COC(=O)C(\C#N)=C(\c1ccccc1)c2ccccc2 (stereo unspecified) | 79.8% | 44% | 99% | 86.1% | 94.1% | 96.6% | 96.2% | 97.8% | 95.6% | 91.6% | 88.9% | 91.6% | 55.3% | 90.3% | 89.3% | 98.8% | 93.9% | 95.9% | 90.6% | 110% | 99.6% | 86.3% | 88.3% | 46.3% | 103% | 99.7% | 99.9% | 90.3% | 107% | 86% | 91.5% | 106% | 107% |
| COc1c(Cl)cc2c([nH]c3cnccc32)c1NC(=O)c1cccnc1C |  |  |  |  |  |  |  |  |  |  |  | 100% | 116% | 119% | 92% | 114% | 103% | 118% | 108% | 107% | 103% | 84.8% | 93.6% | 95.3% | 108% | 97.5% | 110% | 107% | 101% | 125% | 106% | 105% | 90.1% |
| CCOC(=O)c1c(C)n(C)c2ccc(O)cc12 | 115% | 121% | 107% | 110% | 101% | 119% | 108% | 120% | 114% | 124% | 111% | 99.8% | 95.8% | 97.6% | 96% | 95.6% | 105% | 97% | 103% | 107% | 113% | 104% | 115% | 117% | 106% | 118% | 113% | 95.5% | 106% | 112% | 113% | 117% | 116% |
| CCCCCCNC(=O)N1\C=C(F)/C(=O)NC1=O | 115% | 118% | 128% | 117% | 134% | 117% | 112% | 129% | 118% | 97.9% | 73.6% | 126% | 104% | 113% | 118% | 121% | 118% | 124% | 110% | 121% | 108% | 83.1% | 126% | 108% | 116% | 129% | 120% | 107% | 99.8% | 101% | 106% | 80.5% | 46.4% |
| Nc1n[nH]c2nnc(-c3c(-c4ccccc4)nn4ccccc34)cc12 | 113% | 114% | 107% | 121% | 122% | 131% | 121% | 117% | 117% | 100% | 17.3% | 93.5% | 109% | 109% | 115% | 116% | 127% | 124% | 109% | 113% | 92.2% | 9.4% | 116% | 102% | 119% | 126% | 114% | 125% | 134% | 123% | 137% | 116% | 21% |
| Cc1c(N)nc([C@H](CC(N)=O)NC[C@@H](N)C(N)=O)nc1C(=O)N[C@H](C(=O)N[C@@H](C)[C@H](O)[C@@H](C)C(=O)N[C@@H](C(=O)NCCc1nc(-c2nc(C(=O)NCCC[S+](C)C)cs2)cs1)[C@@H](C)O)C(O[C@H]1O[C@H](CO)[C@H](O)[C@@H](O)[C@H]1O[C@H]1O[C@H](CO)[C@@H](O)[C@H](OC(N)=O)[C@@H]1O)c1c[nH]cn1 (stereo partly specified) | 99.2% | 109% | 107% | 114% | 89.7% | 121% | 113% | 61.8% | 64.9% | 29.7% | 17.7% | 110% | 115% | 115% | 113% | 101% | 128% | 121% | 82.9% | 61.9% | 67.2% | 74.2% | 89.6% | 110% | 99.3% | 111% | 88.4% | 113% | 91.5% | 81.8% | 54.3% | 16.9% | 14.8% |
| Cc1nc(-c2ccc(OCC(C)C)c(C#N)c2)sc1C(=O)O | 125% | 112% | 116% | 104% | 105% | 104% | 121% | 105% | 105% | 122% | 124% | 110% | 110% | 101% | 120% | 115% | 104% | 122% | 108% | 106% | 110% | 113% | 107% | 132% | 121% | 131% | 127% | 111% | 106% | 111% | 126% | 132% | 138% |
